How the values were obtained:
Format in all cases: functional
EKVX [1] = assay: Antiproliferative activity against human EKVX cells assessed as cell growth at 500 uM by SRB assay; conditions: read-out: Activity
DU-145 [2] = assay: Antiproliferative activity against human DU145 cells assessed as cell growth at 500 uM by SRB assay; conditions: read-out: Activity
SF-268 [3] = assay: Antiproliferative activity against human SF268 cells assessed as cell growth at 500 uM by SRB assay; conditions: read-out: Activity
[4] = Antiproliferative activity against human […] cells assessed as cell growth at 5 uM by SRB assay; conditions: read-out: Activity
SNB-75 [5] = assay: Antiproliferative activity against human SNB75 cells assessed as cell growth at 50 uM by SRB assay; conditions: read-out: Activity
786-0 = assay: Antiproliferative activity against human 786-0 cells assessed as cell growth at 50 uM by SRB assay; conditions: read-out: Activity
NCI-H226 = assay: Antiproliferative activity against human NCI-H226 cells assessed as cell growth at 500 uM by SRB assay; conditions: read-out: Activity
EKVX [6] = assay: Antiproliferative activity against human EKVX cells assessed as cell growth at […] by SRB assay; conditions: read-out: Activity
OVCAR-4 = assay: Antiproliferative activity against human OVCAR4 cells by SRB assay
T47D = assay: Antiproliferative activity against human T47D cells assessed as cell growth at 5 uM by SRB assay; conditions: read-out: Activity
EKVX [7] = assay: Antiproliferative activity against human EKVX cells assessed as cell growth at 5 uM by SRB assay; conditions: read-out: Activity
HCT-116 [8] = assay: Antiproliferative activity against human HCT116 cells assessed as cell growth at 0.5 uM by SRB assay; conditions: read-out: Activity
DU-145 [9] = assay: Antiproliferative activity against human DU145 cells assessed as cell growth at 0.5 uM by SRB assay; conditions: read-out: Activity
OVCAR-5 [10] = assay: Antiproliferative activity against human OVCAR5 cells at 5 uM by SRB assay
SF-268 [11] = assay: Antiproliferative activity against human SF268 cells assessed as cell growth at 0.5 uM by SRB assay; conditions: read-out: Activity
HOP-92 = assay: Antiproliferative activity against human HOP92 cells assessed as cell growth at 500 uM by SRB assay; conditions: read-out: Activity
ACHN = assay: Antiproliferative activity against human ACHN cells by SRB assay
OVCAR-3 = assay: Antiproliferative activity against human OVCAR-3 cells assessed as cell growth at 50 uM by SRB assay; conditions: read-out: Activity
CAKI-1 = assay: Antiproliferative activity against human Caki1 cells assessed as cell growth at 0.5 uM by SRB assay; conditions: read-out: Activity
OVCAR-5 [12] = assay: Antiproliferative activity against human OVCAR5 cells at 500 uM by SRB assay
[13] = Antiproliferative activity against human Hs 578T cells by SRB assay
K562 = assay: Antiproliferative activity against human K562 cells assessed as cell growth at 0.5 uM by SRB assay; conditions: read-out: Activity
HCT-15 = assay: Antiproliferative activity against human HCT15 cells by SRB assay
NCI/ADR-RES = assay: Antiproliferative activity against human NCI/ADR-RES cells assessed as cell growth at 5 uM by SRB assay; conditions: read-out: Activity
BT-549 = assay: Antiproliferative activity against human BT549 cells assessed as cell growth at 500 uM by SRB assay; conditions: read-out: Activity
MOLT-4 [14] = assay: Antiproliferative activity against human MOLT4 cells by SRB assay
LOX IMVI = assay: Antiproliferative activity against human LOXIMVI cells assessed as cell growth at 500 uM by SRB assay; conditions: read-out: Activity
UO-31 [15] = assay: Antiproliferative activity against human UO31 cells assessed as cell growth at 500 uM by SRB assay; conditions: read-out: Activity
UO-31 [16] = assay: Antiproliferative activity against human UO31 cells assessed as cell growth at 5 uM by SRB assay; conditions: read-out: Activity
MOLT-4 [17] = assay: Antiproliferative activity against human MOLT4 cells assessed as cell growth at 5 uM by SRB assay; conditions: read-out: Activity
Malme-3M = assay: Antiproliferative activity against human MALME-3M cells assessed as cell growth at 0.5 uM by SRB assay; conditions: read-out: Activity
HT-29 = assay: Antiproliferative activity against human HT-29 cells assessed as cell growth at 0.5 uM by SRB assay; conditions: read-out: Activity
SW-620 = assay: Antiproliferative activity against human SW620 cells assessed as cell growth at 50 uM by SRB assay; conditions: read-out: Activity
HL-60(TB) = assay: Antiproliferative activity against human HL-60(TB) cells assessed as cell growth at 500 uM by SRB assay; conditions: read-out: Activity
DU-145 [18] = assay: Antiproliferative activity against human DU145 cells assessed as cell growth at 5 uM by SRB assay; conditions: read-out: Activity
SF-268 [19] = assay: Antiproliferative activity against human SF268 cells assessed as cell growth at 50 uM by SRB assay; conditions: read-out: Activity
DU-145 [20] = assay: Antiproliferative activity against human DU145 cells assessed as cell growth at 50 uM by SRB assay; conditions: read-out: Activity
HCT-116 [21] = assay: Antiproliferative activity against human HCT116 cells assessed as cell growth at 50 uM by SRB assay; conditions: read-out: Activity
[22] = Antiproliferative activity against human Hs 578T cells assessed as cell growth at 0.5 uM by SRB assay; conditions: read-out: Activity
HOP-62 = assay: Antiproliferative activity against human HOP62 cells assessed as cell growth at […] by SRB assay; conditions: read-out: Activity
OVCAR-5 [23] = assay: Antiproliferative activity against human OVCAR5 cells by SRB assay
SK-MEL-5 = assay: Antiproliferative activity against human SK-MEL-5 cells assessed as cell growth at 50 uM by SRB assay; conditions: read-out: Activity
SNB-75 [24] = assay: Antiproliferative activity against human SNB75 cells by SRB assay
[25] = read-out: LC50 (the source's name)
[26] = read-out: pLC50 (the source's name) (converted)

## O=C(/C=C/c1ccc(O)c(O)c1)OCCc1ccc(O)c(O)c1
EKVX [1]
  growth at 500 µM: 78%
DU-145 [2]
  growth at 500 µM: 80%
SF-268 [3]
  growth at 500 µM: 57%
[4]
  growth at 5 µM: 70%
SNB-75 [5]
  growth at 50 µM: 72%
786-0
  growth at 50 µM: 94%
NCI-H226
  growth at 500 µM: 79%
EKVX [6]
  growth: 19%
OVCAR-4
  GI50: 7.37 µM
OVCAR-4; [25]
  CC50: > 50 µM
OVCAR-4; read-out: TGI
  TGI: > 50 µM
OVCAR-4; [26]
  CC50: > 50.1 µM
OVCAR-4; read-out: pTGI
  TGI: > 50.1 µM
T47D
  growth at 5 µM: 102%
EKVX [7]
  growth at 5 µM: 84%
HCT-116 [8]
  growth at 0.5 µM: 100%
DU-145 [9]
  growth at 0.5 µM: 102%
OVCAR-5 [10]
  Activity: 89%
SF-268 [11]
  growth at 0.5 µM: 94%
HOP-92
  growth at 500 µM: 29%
ACHN; read-out: GI50
  GI50: 2.94 µM
ACHN; [25]
  CC50: > 50 µM
ACHN; read-out: TGI
  TGI: 38.7 µM
ACHN; read-out: pGI50 (converted)
  GI50: 2.95 µM
ACHN; [26]
  CC50: > 50.1 µM
ACHN; read-out: pTGI (converted)
  TGI: 38.9 µM
OVCAR-3
  growth at 50 µM: 90%
CAKI-1
  growth at 0.5 µM: 82%
OVCAR-5 [12]
  Activity: 102%
[13]; read-out: GI50
  GI50: 9.75 µM
[13]; [25]
  CC50: > 50 µM
[13]; read-out: TGI
  TGI: > 50 µM
[13]; read-out: pGI50 (converted)
  GI50: 9.77 µM
[13]; [26]
  CC50: > 50.1 µM
[13]; read-out: pTGI
  TGI: > 50.1 µM
K562
  growth at 0.5 µM: 107%
HCT-15; read-out: GI50
  GI50: 2.25 µM
HCT-15; [25]
  CC50: > 50 µM
HCT-15; read-out: TGI
  TGI: > 50 µM
HCT-15; read-out: pGI50 (converted)
  GI50: 1.41 µM
HCT-15; [26]
  CC50: > 50.1 µM
HCT-15; read-out: pTGI
  TGI: > 50.1 µM
NCI/ADR-RES
  growth at 5 µM: 98%
BT-549
  growth at 500 µM: 60%
MOLT-4 [14]; read-out: GI50
  GI50: 3.06 µM
MOLT-4 [14]; [25]
  CC50: > 50 µM
MOLT-4 [14]; read-out: TGI
  TGI: > 50 µM
MOLT-4 [14]; read-out: pGI50 (converted)
  GI50: 3.09 µM
MOLT-4 [14]; [26]
  CC50: > 50.1 µM
MOLT-4 [14]; read-out: pTGI
  TGI: > 50.1 µM
LOX IMVI
  growth at 500 µM: 57%
UO-31 [15]
  growth at 500 µM: 23%
UO-31 [16]
  growth at 5 µM: 93%
MOLT-4 [17]
  growth at 5 µM: 97%
Malme-3M
  growth at 0.5 µM: 91%
HT-29
  growth at 0.5 µM: 104%
SW-620
  growth at 50 µM: 98%
HL-60(TB)
  growth at 500 µM: 37%
DU-145 [18]
  growth at 5 µM: 101%
SF-268 [19]
  growth at 50 µM: 85%
DU-145 [20]
  growth at 50 µM: 100%
HCT-116 [21]
  growth at 50 µM: 92%
[22]
  growth at 0.5 µM: 83%
HOP-62
  growth: 38%
OVCAR-5 [23]; read-out: GI50
  GI50: > 50 µM
OVCAR-5 [23]; [25]
  CC50: > 50 µM
OVCAR-5 [23]; read-out: TGI
  TGI: > 50 µM
OVCAR-5 [23]; read-out: pGI50 (converted)
  GI50: > 50.1 µM
OVCAR-5 [23]; [26]
  CC50: > 50.1 µM
OVCAR-5 [23]; read-out: pTGI
  TGI: > 50.1 µM
SK-MEL-5
  growth at 50 µM: 102%
SNB-75 [24]; read-out: GI50
  GI50: 9.5 µM
SNB-75 [24]; [25]
  CC50: > 50 µM
SNB-75 [24]; read-out: TGI
  TGI: > 50 µM
SNB-75 [24]; read-out: pGI50 (converted)
  GI50: 9.55 µM
SNB-75 [24]; [26]
  CC50: > 50.1 µM
SNB-75 [24]; read-out: pTGI
  TGI: > 50.1 µM

— ChEMBL document CHEMBL1154899, “Synthesis and biological evaluation of caffeic acid 3,4-dihydroxyphenethyl ester” (J Nat Prod, 2010)
